In patent US8575116B1, “Polyacetylenic compounds for protecting against pancreatic islet atrophy” (Academia Sinica, priority 2010, dated 2013):

Assays:
[1] = system: human insulin promoter in HIT-T15 β-cells; assay: Insulin promoter (phINS-Luc) dual luciferase assay in HIT-T15 β-cells; type: cell-based, rat; details: FIG. 6C
Procedure: FIGS. 4A-C show an increase in insulin mRNA and protein content by cytopiloyne in pancreatic islet cells. (A) HIT-T15 β-cells transfected with phINS-Luc and pRL-TK plasmids were incubated with vehicle (NS), glimepiride (GLM, 10 μM), high glucose (HG, 16.7 mM) or cytopiloyne at 7, 14 or 28 μM. Ten μg of cell lysates from these cells underwent to dual luciferase assays. […] (C) Rat pancreatic islet cells were treated with vehicle, glucose (3.3 mM (LG) or 16.7 mM (HG)) or cytopiloyne (CP, 7, 14 and 28 μM) in the presence of brefeldin A for 24 h. After anti-insulin antibody staining, these cells underwent FACS analysis. The percentage of insulin-positive β-cells is shown. All the results from 3 independent experiments are expressed as mean±SEM, and P<0.05 was considered to be statistically significant (*).
(A) RIN-M5F cells were grown in medium with 16.7 mM (HG) or 3.3 mM glucose (LG) in the presence of PMA. GF and cytopiloyne. The insulin level of the supernatants was determined using an ELISA kit. (B) RIN-M5F cells were transfected with 5 μg of dominant-negative PKCα or control plasmid grown in medium with 16.7 mM (HG) or 3.3 mM glucose (LG) in the presence of PMA (1 μM), GF109203X (3 μM) or cytopiloyne. The insulin level of the supernatants was determined using an ELISA kit. (C) HIT-T15 cells were transfected with phINS-Luc and pRL-TK plasmids. The cells were grown in medium with 16.7 mM (HG) or 3.3 mM glucose (LG) in the absence or presence of PMA, GF109203X and cytopiloyne. The cell lysates were subjected to dual luciferase assays. (D) HIT-T15 cells were transfected with vehicle or dominant-negative PKCα plasmid together with phINS-Luc and pRL-TK plasmids. The cells were grown in medium with 16.7 mM (HG) or 3.3 mM glucose (LG) in the absence or presence of PMA and cytopiloyne. The cell lysates were subjected to dual luciferase assays.
Plasmids phINS-Luc and pRL-TK contain a human insulin promoter (2347 bp) from phINS-DCR3 vector linked to a firefly luciferase gene and the thymidine kinase promoter linked to Renilla luciferase reporter gene, respectively. Dominant-negative PKCα, phINS-Luc and/or pRL-TK were transfected into HIT-T15 cells with lipofectamine or electroporation.

HIT-T15 cells = assay: Insulin secretion of β-cell line with PMA, GF109203X and cytopiloyne (ELISA); type: cell-based, rat; details: FIG. 6A
β-cell line = assay: Insulin secretion in β-cell line (unpublished data); type: cell-based
adiponectin = assay: Real-time RT-PCR of adiponectin mRNA relative to GAPDH in 3T3-L1 cells; type: cell-based, mouse; details: mouse, 8 days, 1 μM
[2] = system: adipocyte protein 2 (aP2); assay: Real-time RT-PCR of aP2 mRNA relative to GAPDH in 3T3-L1 cells; type: cell-based, mouse; details: mouse, 8 days, 1 μM
STZ-treated C57BL mice [3] = assay: Insulin sensitizer test: oral dose before insulin injection in STZ-treated C57BL mice; type: in vivo, mouse; details: cytopiloyne 0.5 and 2.5, glimepiride 2.5, metformin 60 mgkg^−1 oral; insulin 2.5 IUkg^−1
Procedure: (§1) FIGS. 3A-C show cytopiloyne-mediated insulin release depends on pancreatic islet cells. (A) Rat pancreatic islet cells were incubated with glucose-free KRB buffer containing vehicle or cytopiloyne at 1.5, 3, 7, 14, 28 and 42 μM (FIG. 3A-i). Similarly, rat pancreatic islet cells were incubated with KRB buffer containing vehicle, glimepiride (GLM, 10 μM) or cytopiloyne at 1.5, 3, 7, 14, 28 and 42 μM in the presence of 3.3 mM glucose (LG, FIG. 3A-ii) or 16.7 mM glucose (HG, FIG. 3A-iii). The insulin levels were determined using an insulin ELISA kit. The data presented as mean±SEM of 3 independent experiments. (B) Fed C57BL mice, which had already received an injection of STZ, were administered with an oral dose of vehicle, cytopiloyne (CP, 0.1, 0.5 and 2.5 mgkg^−1), and an intraperitoneal injection of insulin (Ins, 2.5 IUkg^−1). Blood sugar levels in the STZ-treated mice were determined using a glucometer. (C) C57BL mice, which had already received STZ, were orally administered with a single dose of vehicle, cytopiloyne (CP, 0.5 and 2.5 mgkg^−1), glimepiride (GLM, 2.5 mgkg^−1), or metformin (60 mgkg^−1), followed by an intraperitoneal injection with insulin (Ins). Blood sugar levels in the STZ-treated mice were determined using a glucometer. All the results from 3 independent experiments are expressed as mean±SEM, and P<0.05 was considered to be statistically significant (*). The number of mice (n) is indicated in parentheses.
To deplete pancreatic β-cells in mice, 6-week-old C57BL females (NLAC, Taipei, Taiwan) were intraperitoneally injected with STZ at 200 mgkg^−1. STZ-treated females with postprandial blood sugar over 500 mgdl^−1 were grouped. […] Blood glucose levels were monitored for 4 h. To distinguish sensitizer activity from releaser activity of cytopiloyne, STZ-treated C57BL mice were tube-fed with vehicle, glimepiride (2.5 mgkg^−1), metformin (60 mgkg^−1) or cytopiloyne (0.5 and 2.5 mgkg^−1) 1 h before insulin injection (2.5 IUkg^−1). Blood glucose levels in the mice were monitored from 0 to 4 h after insulin injection.

RIN-m5F cells = assay: DAG and cholesterol generation (3H-myristic acid, TLC) in RIN-m5F cells; type: cell-based, rat; details: versus vehicle control, glucose 16.7 mM
Procedure: (§2) FIGS. 5A-D show the effects of cytopiloyne on calcium mobilization, DAG generation and PKCa activation. (A) After Fura 2-AM loading, RIN-m5F cells were stimulated with 16.7 mM glucose (HG) and cytopiloyne at 7, 14 and 28 μM. Level of intracellular calcium, as shown by the 340/380 nm ratio, was detected using a fluorescence spectrophotometer. (B) RIN-m5F cells were pulsed with ^3H-myristic acid (5 Cim1^−1) for 16 hours. After washing, the cells were stimulated with glucose, cytopiloyne, PMA and glimepiride. Total lipids were separated on a silica thin layer plate. DAG and cholesterol were visualized with iodine vapor and identified by their standards. (C) RIN-m5F cells were incubated with vehicle (Mock), cytopiloyne (CP, 3, 7 and 14 μM), PMA (1 μM) and 16.7 mM (HG). Membrane or cytosolic proteins were subjected to Western blot with anti-PKCα and anti-Actin antibodies. (D) RIN-m5F cells were incubated with vehicle (Mock), cytopiloyne (CP 7 μM) and PMA (1 μM). After lysis, total lystaes were subjected to Western blot with anti-PKCα, anti-phospho-PKCα and anti-Actin antibodies.
RIN-m5F cells were incubated with ^3H-myristic acid ([…]) for 16 hours. After washing, the cells were treated with glucose, cytopiloyne, PMA and glimepiride. Total lipids were extracted as previously described. Radioactive DAG was separated on a silica thin layer plate with the first developer of ethylacetate: acetic acid: triethylpentane (9:2:5) and the second developer of hexane: diethylether: methanol: acetic acid (90:20:3:2). The spot of DAG was visualized with iodine vapor and identified by DAG standard.

PKCα = PKCα translocation and phosphorylation (Western blot) in RIN-m5F cells; type: cell-based, rat; details: PMA 1 μM, glucose 16.7 mM
Procedure: as §2

STZ-treated C57BL mice [4] = assay: Blood glucose in STZ-treated (β-cell-depleted) C57BL mice; type: in vivo, mouse; details: cytopiloyne oral 0.1, 0.5 and 2.5 mgkg^−1; insulin i.p. 2.5 IUkg^−1
Procedure: as §1, with “(C) C57BL mice, which had already received STZ, were orally administered with a single dose of vehicle, cytopiloyne (CP, 0.5 and 2.5 mgkg^−1), glimepiride (GLM, 2.5 mgkg^−1), or metformin (60 mgkg^−1), followed by an intraperitoneal injection with insulin (Ins).” left out, “The number of mice (n) is indicated in parentheses.” left out
To deplete pancreatic β-cells in mice, 6-week-old C57BL females (NLAC, Taipei, Taiwan) were intraperitoneally injected with STZ at 200 mgkg^−1. […] Blood glucose levels were monitored for 4 h. […] Blood glucose levels in the mice were monitored from 0 to 4 h after insulin injection.

CN(C)CCCn1cc(C2=C(c3c[nH]c4ccccc34)C(=O)NC2=O)c2ccccc21 [GF109203X]
effect of PKC inhibitor on mediated insulin transcription ([1]; with cytopiloyne, glucose or PMA): completely abolished cytopiloyne-, glucose- and PMA-mediated insulin transcription | effect of PKC inhibitor on induced insulin secretion (HIT-T15 cells; with cytopiloyne or PMA): inhibited cytopiloyne- and PMA-induced insulin secretion

cytopiloyne aglycone
induction of insulin secretion relative to cytopiloyne (β-cell line): less effective than cytopiloyne in inducing insulin secretion | insulin secretion in β-cell line (β-cell line): did stimulate insulin secretion in β-cell line to some extent

CN(CCOc1ccc(CC2SC(=O)NC2=O)cc1)c1ccccn1 (stereo not shown) [rosiglitazone]
adiponectin expression level, times control levels (adiponectin): 21 times | aP2 expression, times of the control [2]: 11 times

CN(C)C(=N)N=C(N)N [metformin]
blood sugar lowering when dosed 60 min before insulin injection (STZ-treated C57BL mice [3]): significantly reduced blood glucose levels

CCCCCCCCCCCCCC(=O)O[C@@H]1[C@@H](C)[C@@]2(O)[C@@H](C=C(CO)C[C@]3(O)C(=O)C(C)=C[C@@H]23)[C@@H]2C(C)(C)[C@]12OC(C)=O [PMA, phorbol 12-myristate 13-acetate, reference compound]
level of DAG (RIN-m5F cells): significantly increased the level of DAG | insulin transcription in HIT-T15 cells ([1]; glucose 16.7 mM): stimulated insulin transcription | insulin secretion in β-cell line (HIT-T15 cells; glucose 16.7 mM): stimulated insulin secretion | phosphorylation of PKCα (PKCα; cytopiloyne 7 μM): increased phosphorylation of PKCα | translocation of PKCα from cytoplasm to membrane (PKCα; cytopiloyne 3, 7 and 14 μM): increased the translocation of PKCα from cytoplasm to membrane

insulin: Insulin purchased from Novo Nordisk, injected intraperitoneally
reduction of hyperglycemia / blood glucose in β-cell-depleted mice (STZ-treated C57BL mice [4]): still diminished blood glucose levels
